In brackets after ≈: the same amount, converted by molar mass.
Key:
Test in all cases: ≥ marks a high value that may be exact or a test limit, other limits are often not marked, values filed in µg/mL are converted to µM
[1] = test system: Bacillus subtilis ATCC 23857
[2] = test system: Candida albicans ATCC 10231
Streptococcus mutans = test system: Streptococcus mutans
[3] = test system: Escherichia coli ATCC 25922
[4] = test system: Staphylococcus aureus ATCC 25923
[5] = test system: Candida albicans ATCC 2002
[6] = test system: Pseudomonas aeruginosa CMCCB 10104
[7] = test system: Escherichia coli NCTC 10418
[8] = test system: Staphylococcus aureus NCTC 10788
[9] = test system: Klebsiella pneumoniae ATCC 700603
[10] = test system: Pseudomonas aeruginosa ATCC 9027

| MIC [3] | MIC [4] | MIC [5] | MIC [6] | also measured | Structure (SMILES) |
| --- | --- | --- | --- | --- | --- |
|  |  |  |  | MIC [1]: ≥ 362 µM; MIC [2]: > 362 µM | C[C@H](N)C(=O)N[C@@H](C)C(=O)N[C@@H](CCCN=C(N)N)C(=O)N[C@@H](CCCN=C(N)N)C(=O)N[C@@H](C)C(=O)N[C@@H](C)C(=O)N[C@@H](CCCN=C(N)N)C(=O)N[C@@H](CCCN=C(N)N)C(=O)N[C@@H](C)C(=O)N[C@@H](C)C(=O)N[C@@H](CCCN=C(N)N)C(=O)N[C@@H](CCCN=C(N)N)C(N)=O [AARRAARRAARR] |
|  |  |  |  | MIC (Streptococcus mutans): 21 µM (≈ 32 µg/mL) | CC(C)C[C@H](NC(=O)[C@H](Cc1c[nH]c2ccccc12)NC(=O)[C@H](CCC(N)=O)NC(=O)[C@H](CC(C)C)NC(=O)[C@H](Cc1ccccc1)NC(=O)[C@@H](NC(=O)[C@H](CCCCN)NC(=O)[C@@H](N)Cc1ccccc1)[C@@H](C)O)C(=O)N[C@@H](Cc1cnc[nH]1)C(=O)N[C@@H](CCCN=C(N)N)C(=O)N[C@@H](Cc1ccccc1)C(N)=O [FKTFLQWLHRF] |
| 1.3 µM (≈ 3.4 µg/mL) | 2.6 µM (≈ 6.79 µg/mL) | 2.6 µM (≈ 6.79 µg/mL) | 10.4 µM (≈ 27.2 µg/mL) |  | CC[C@H](C)[C@@H]1NC(=O)[C@H](C)NC(=O)[C@@H](NC(=O)[C@H](Cc2ccccc2)NC(=O)[C@@H](NC(=O)[C@@H](NC(=O)[C@@H]2CCCN2C(=O)[C@H](CC(C)C)NC(=O)[C@@H](NC(=O)[C@H](Cc2cnc[nH]2)NC(=O)[C@@H](NC(=O)[C@H](C)NC(=O)[C@@H](NC(=O)[C@H](CC(C)C)NC(=O)[C@H](CC(C)C)NC(=O)[C@@H](NC(=O)[C@H](C)NC(=O)[C@@H]2CCCN2C(=O)[C@H](CC(C)C)NC(=O)[C@@H](N)Cc2ccccc2)C(C)C)C(C)C)[C@@H](C)O)C(C)C)[C@@H](C)O)C(C)C)CSSC[C@@H](C(=O)O)NC(=O)[C@H](CCCCN)NC(=O)[C@H](CCCN=C(N)N)NC(=O)[C@H]([C@@H](C)O)NC1=O [FLPAVLLVATHVLPTVFCAITRKC] |
|  |  |  |  | MIC [7]: ≥ 40 µM; MIC [8]: 10 µM (≈ 14 µg/mL) | CC[C@H](C)[C@H](NC(=O)[C@@H](NC(=O)[C@@H]1CCCN1C(=O)[C@H](CC(C)C)NC(=O)[C@@H](N)Cc1ccccc1)C(C)C)C(=O)N[C@@H](C)C(=O)NCC(=O)N[C@H](C(=O)N[C@@H](CC(C)C)C(=O)N[C@@H](CO)C(=O)N[C@@H](CCCCN)C(=O)N[C@@H](CC(C)C)C(=O)N[C@@H](Cc1ccccc1)C(N)=O)C(C)C [FLPVIAGVLSKLF] |
| 1.79 µM (≈ 8.6 µg/mL) | 1.79 µM (≈ 8.6 µg/mL) | 1.79 µM (≈ 8.6 µg/mL) | 1.79 µM (≈ 8.6 µg/mL) |  | CC[C@H](C)[C@H](NC(=O)CN)C(=O)N[C@@H](Cc1ccccc1)C(=O)N[C@@H](CO)C(=O)N[C@@H](CCCCN)C(=O)N[C@H](C(=O)N[C@@H](CO)C(=O)NCC(=O)N[C@@H](CCCCN)C(=O)N[C@@H](C)C(=O)N[C@H](C(=O)N[C@@H](CCCCN)C(=O)N[C@@H](CC(N)=O)C(=O)N[C@@H](CC(C)C)C(=O)N[C@@H](Cc1ccccc1)C(=O)N[C@H](C(=O)N[C@@H](CCCCN)C(=O)NCC(=O)N[C@@H](C)C(=O)N[C@@H](CCC(=O)O)C(=O)N[C@@H](CC(N)=O)C(=O)N[C@H](C(=O)NCC(=O)N[C@@H](CCCCN)C(=O)N[C@@H](Cc1cnc[nH]1)C(=O)N[C@H](C(=O)NCC(=O)N[C@@H](CCSC)C(=O)N[C@@H](CC(=O)O)C(=O)N[C@H](C(=O)N[C@H](C(=O)N[C@@H](CCCN=C(N)N)C(=O)N[C@H](C(=O)NCC(=O)N[C@H](C(=O)N[C@@H](CC(=O)O)C(=O)N[C@H](C(=O)N[C@H](C(=O)NCC(=O)N[C@H]1CSSC[C@@H](C(=O)O)NC(=O)[C@H](CCC(=O)O)NC(=O)CNC(=O)[C@H](CCCCN)NC(=O)[C@H]([C@@H](C)CC)NC(=O)[C@H](CCCCN)NC1=O)C(C)C)C(C)C)[C@@H](C)CC)[C@@H](C)O)C(C)C)C(C)C)C(C)C)C(C)C)[C@@H](C)CC)[C@@H](C)CC)[C@@H](C)CC [GIFSKISGKAIKNLFIKGAENVGKHVGMDVVRTGIDVVGCKIKGEC] |
| 5.12 µM (≈ 10.2 µg/mL) | 10.2 µM (≈ 20.4 µg/mL) | 5.12 µM (≈ 10.2 µg/mL) | 10.2 µM (≈ 20.4 µg/mL) |  | CC[C@H](C)[C@H](NC(=O)CN)C(=O)N[C@@H](CC(C)C)C(=O)N[C@@H](CO)C(=O)NCC(=O)N[C@@H](CC(C)C)C(=O)N[C@@H](CC(C)C)C(=O)NCC(=O)N[C@H](C(=O)NCC(=O)N[C@@H](CCCCN)C(=O)N[C@@H](CCSC)C(=O)N[C@@H](CC(C)C)C(=O)N[C@H](C(=O)N[C@H]1CSSC[C@@H](C(=O)O)NC(=O)[C@H](CC(C)C)NC(=O)CNC(=O)[C@H](CO)NC(=O)[C@H](CC(C)C)NC(=O)CNC1=O)C(C)C)C(C)C [GILSGLLGVGKMLVCGLSGLC] |
| 1.86 µM (≈ 6.3 µg/mL) | 1.86 µM (≈ 6.3 µg/mL) | 0.944 µM (≈ 3.2 µg/mL) | 3.72 µM (≈ 12.6 µg/mL) |  | CC[C@H](C)[C@H](NC(=O)[C@H](C)NC(=O)[C@H](CCSC)NC(=O)[C@H](CC(N)=O)NC(=O)[C@H](CCCCN)NC(=O)[C@H](Cc1ccccc1)NC(=O)[C@@H](NC(=O)[C@H](CC(=O)O)NC(=O)[C@H](CC(C)C)NC(=O)[C@H](CC(C)C)NC(=O)CN)[C@@H](C)O)C(=O)N[C@@H](CC(N)=O)C(=O)N[C@@H](C)C(=O)N[C@@H](C)C(=O)N[C@@H](Cc1cnc[nH]1)C(=O)NCC(=O)N[C@@H](C)C(=O)NCC(=O)N[C@H](C(=O)N[C@@H](CO)C(=O)N[C@H](C(=O)N[C@@H](CC(C)C)C(=O)N[C@@H](CC(N)=O)C(=O)N[C@@H](C)C(=O)N[C@@H](CC(C)C)C(=O)N[C@@H](CO)C(=O)N[C@H]1CSSC[C@@H](C(=O)O)NC(=O)[C@H]([C@@H](C)O)NC(=O)[C@H](CCCCN)NC(=O)[C@H](CCCCN)NC(=O)[C@H](CC(C)C)NC(=O)[C@H](CCCCN)NC1=O)C(C)C)C(C)C [GLLDTFKNMAINAAHGAGVSVLNALSCKLKKTC] |
| 3.92 µM (≈ 13.2 µg/mL) | 1.96 µM (≈ 6.6 µg/mL) | 1.96 µM (≈ 6.6 µg/mL) | 1.96 µM (≈ 6.6 µg/mL) |  | CSCC[C@H](NC(=O)[C@H](CC(N)=O)NC(=O)[C@H](CCCCN)NC(=O)[C@H](Cc1ccccc1)NC(=O)[C@@H](NC(=O)[C@H](CC(=O)O)NC(=O)[C@H](CC(C)C)NC(=O)[C@H](CC(C)C)NC(=O)CN)[C@@H](C)O)C(=O)N[C@@H](C)C(=O)N[C@@H](CC(C)C)C(=O)N[C@@H](CC(N)=O)C(=O)N[C@@H](C)C(=O)N[C@@H](C)C(=O)N[C@@H](CCCCN)C(=O)N[C@@H](CO)C(=O)N[C@@H](C)C(=O)NCC(=O)N[C@H](C(=O)N[C@@H](CO)C(=O)N[C@H](C(=O)N[C@@H](CC(C)C)C(=O)N[C@@H](CC(N)=O)C(=O)N[C@@H](C)C(=O)N[C@@H](CC(C)C)C(=O)N[C@@H](CO)C(=O)N[C@H]1CSSC[C@@H](C(=O)O)NC(=O)[C@H]([C@@H](C)O)NC(=O)[C@H](CCCCN)NC(=O)[C@H](CO)NC(=O)[C@H](CC(C)C)NC(=O)[C@H](CCCCN)NC1=O)C(C)C)C(C)C [GLLDTFKNMALNAAKSAGVSVLNALSCKLSKTC] |
|  |  |  |  | MIC (Streptococcus mutans): 4.52 µM (≈ 16 µg/mL) | CC[C@H](C)[C@H](N)C(=O)N[C@@H](CCCCN)C(=O)N[C@@H](CCC(N)=O)C(=O)N[C@@H](CC(C)C)C(=O)N[C@@H](CC(C)C)C(=O)N[C@@H](Cc1cnc[nH]1)C(=O)N[C@@H](Cc1ccccc1)C(=O)N[C@@H](Cc1ccccc1)C(=O)N[C@@H](CCC(N)=O)C(=O)N[C@@H](CCCN=C(N)N)C(=O)N[C@@H](Cc1ccccc1)C(=O)NCC(=O)NCC(=O)NCC(=O)N[C@@H](CCCN=C(N)N)C(=O)N[C@@H](Cc1c[nH]c2ccccc12)C(=O)N[C@@H](CCCN=C(N)N)C(=O)N[C@@H](CCCN=C(N)N)C(=O)N[C@@H](CC(C)C)C(=O)N[C@@H](CC(C)C)C(=O)N[C@@H](CCCCN)C(=O)N[C@@H](CCCCN)C(=O)N[C@@H](CC(C)C)C(=O)N[C@@H](Cc1cnc[nH]1)C(=O)N[C@@H](Cc1cnc[nH]1)C(=O)N[C@@H](CC(C)C)C(=O)N[C@@H](CC(C)C)C(=O)N[C@@H](Cc1cnc[nH]1)C(N)=O [IKQLLHFFQRFGGGRWRRLLKKLHHLLH] |
|  |  |  |  | MIC (Streptococcus mutans): 30.8 µM (≈ 44.7 µg/mL) | CC[C@H](C)[C@H](N)C(=O)N[C@@H](CCCCN)C(=O)N[C@H](C(=O)N[C@@H](CC(C)C)C(=O)N[C@@H](CC(C)C)C(=O)N[C@@H](Cc1cnc[nH]1)C(=O)N[C@@H](Cc1ccccc1)C(=O)N[C@@H](Cc1ccccc1)C(=O)N[C@@H](CCC(N)=O)C(=O)N[C@@H](CCCN=C(N)N)C(=O)N[C@@H](Cc1ccccc1)C(N)=O)[C@@H](C)O [IKTLLHFFQRF] |
| > 152 µM | > 152 µM | ≥ 152 µM | ≥ 152 µM |  | CC(C)C[C@H](NC(=O)[C@H](Cc1c[nH]c2ccccc12)NC(=O)[C@@H]1CCCN1C(=O)[C@@H]1CCCN1C(=O)[C@H](CC(C)C)NC(=O)[C@@H](N)CC(C)C)C(=O)N[C@@H](CCCN=C(N)N)C(=O)N1CCC[C@H]1C(=O)N[C@@H](CCCN=C(N)N)C(=O)N[C@@H](CC(N)=O)C(=O)NCC(=O)O [LLPPWLRPRNG] |
| 8 µM (≈ 11.7 µg/mL) | 32 µM (≈ 46.9 µg/mL) |  |  | MIC [1]: 8 µM (≈ 11.7 µg/mL); MIC [9]: 16 µM (≈ 23.4 µg/mL); MIC [10]: 32 µM (≈ 46.9 µg/mL) | CC[C@H](C)[C@H](NC(=O)[C@H](CCCCN)NC(=O)[C@H](CCCCN)NC(=O)[C@H](C)NC(=O)[C@@H](NC(=O)[C@H](C)NC(=O)[C@H](CC(C)C)NC(=O)[C@H](CC(C)C)NC(=O)[C@H](C)NC(=O)[C@H](CCCCN)NC(=O)[C@H](CC(C)C)NC(=O)[C@H](CC(N)=O)NC(=O)[C@@H](N)CC(C)C)C(C)C)C(=O)N[C@@H](C)C(N)=O [LNLKALLAVAKKIA] |
| 18.2 µM (≈ 30 µg/mL) | > 72.8 µM | 18.2 µM (≈ 30 µg/mL) | 18.2 µM (≈ 30 µg/mL) |  | CC[C@H](C)[C@@H]1NC(=O)[C@@H](NC(=O)[C@H](CCCN=C(N)N)NC(=O)[C@H](CO)NC(=O)[C@@H](N)[C@@H](C)O)CSSC[C@@H](C(=O)N[C@@H](CO)C(=O)O)NC(=O)[C@H](CCCCN)NC(=O)[C@H](CCCCN)NC(=O)[C@H](CCCN=C(N)N)NC(=O)[C@H](CCCN=C(N)N)NC(=O)[C@H](Cc2ccc(O)cc2)NC(=O)[C@H](Cc2ccccc2)NC1=O [TSRCIFYRRKKCS] |

From DBAASP
